Results: patent publication US20260201283A1, “SOLVENT COMPOSITION” (Dow Global Technologies LLC, priority 2022, published 2026)
Like-named read-outs stand apart in the source and are kept apart here.

Columns and labels:
[1] = at 25° C., literature values as published in Wikipedia, cited from earlier work
[2] = Solvency of solvent compositions for Monomer A and Monomer B (height of solid residue); assay type: physicochemical; conditions: for concentration of monomer in the final solution: in each of the samples with solvency of 100% (NMF, IE1, IE2, IE3, IE4)
Description: For every sample, the height of the monomer mixture in the vial was 4 mm. The vials were placed in an oven at 54° C. without agitation for 13 hours. The vials returned to room temperature and were photographed again with the PICA-II instrument. The height of the solid residue was observed. It is considered that the residue (if present) was undissolved Monomer A, undissolved Monomer B, or a mixture thereof. The solvency % of each solvent composition was determined as follows: […]

CCCCOCCOCCO [DBE, diethylene glycol n-butyl ether]
Water Solubility ([1]; in words): soluble

OCCOc1ccccc1 [POE, 2-phenoxyethanol]
Water Solubility [1]: 26 g/kg

CNC=O [NMF, n-methylformamide, reference compound]
Solvency (%) ([2]; 0.125 g Monomer A + 0.125 g Monomer B in 2.5 g solvent, 54° C. without agitation for 13 hours, then room temperature): 100% | Quality as solvent for Monomer A and Monomer B ([2]; judgement in words based on Table 4): good solvent

Nc1ccc(-c2ccc(N)cc2C(F)(F)F)c(C(F)(F)F)c1 [Monomer B]
concentration of monomer in the final solution [2]: 5 % by weight based on the weight of the solvent composition

NC(N)=O [Urea]
Water Solubility [1]: 545 mg/mL

O=C1OC(=O)c2cc(Oc3ccc4c(c3)C(=O)OC4=O)ccc21 [Monomer A]
concentration of monomer in the final solution [2]: 5 % by weight based on the weight of the solvent composition
